According to US7067112B2, “Cephaibols: novel antiparasitics from Acremonium tubakii, process for their production, and use thereof” (Sanofi-Aventis Deutschland GmbH, priority 1999, dated 2006):
≈ marks a conversion by molar mass, not a printed value. Square brackets hold non-standard residues; d marks the D form. Peptide text beside a SMILES is read from it. Hyp = O=C(O)[CH]1C[CH](O)CN1; Phe(ol) = N[CH](CO)Cc1ccccc1; Iva = CC[C](C)(N)C(=O)O; Aib = CC(C)(N)C(=O)O

Columns and labels:
Escherichia coli TEM = test: minimal inhibitory concentration (MIC); assay type: cell-based
[1] = test system: Pseudomonas aeruginosa 77/2; test: minimal inhibitory concentration (MIC); assay type: cell-based
[2] = test system: Pasteurella multocida 3;tox.pos.; test: minimal inhibitory concentration (MIC); assay type: cell-based
[3] = test system: Enterobacter cloacae P 99; test: minimal inhibitory concentration (MIC); assay type: cell-based
[4] = test system: Streptococcus pyogenes 77 A; test: minimal inhibitory concentration (MIC); assay type: cell-based
[5] = test system: Enterococcus faecalis ATCC 29212; test: minimal inhibitory concentration (MIC); assay type: cell-based
Escherichia coli DC 2 = test: minimal inhibitory concentration (MIC); assay type: cell-based
[6] = test system: Escherichia coli ATCC 25922; test: minimal inhibitory concentration (MIC); assay type: cell-based
Escherichia coli DC 0 = test: minimal inhibitory concentration (MIC); assay type: cell-based
[7] = test system: Pasteurella multocida P 48; test: minimal inhibitory concentration (MIC); assay type: cell-based
[8] = test system: Bordetella bronchiseptica 10; test: minimal inhibitory concentration (MIC); assay type: cell-based
[9] = test system: Pseudomonas aeruginosa ATCC 27853; test: minimal inhibitory concentration (MIC); assay type: cell-based
[10] = solubility (physicochemical properties)
From the text: (§1) The physicochemical and spectroscopic properties of the cephaibols according to the invention can be summarized as follows: […]

Mycoplasma gallisepticum = test: minimal inhibitory concentration (MIC); assay type: cell-based
[11] = test system: Klebsiella aerogenes 1082 E; test: minimal inhibitory concentration (MIC); assay type: cell-based
[12] = test system: Pseudomonas aeruginosa 1771; test: minimal inhibitory concentration (MIC); assay type: cell-based
[13] = test system: Staphylococcus aureus ATCC 29213; test: minimal inhibitory concentration (MIC); assay type: cell-based
[14] = test system: Enterococcus hirae ATCC 10541; test: minimal inhibitory concentration (MIC); assay type: cell-based
[15] = test system: Pseudomonas aeruginosa ATCC 9027; test: minimal inhibitory concentration (MIC); assay type: cell-based
Escherichia coli 1507 E = test: minimal inhibitory concentration (MIC); assay type: cell-based
[16] = test system: Klebsiella oxytoca 1522 E; test: minimal inhibitory concentration (MIC); assay type: cell-based
[17] = test system: larvae of the chicken roundworm Ascaridia galli; test: larval development test (in vitro) for anthelmintic action; assay type: cell-based; conditions: A. galli L2 larvae, 5 days medication
Procedure: For the testing of the action of the cephaibols on helminths, an in vitro test (larval development test) was carried out with larvae of the chicken roundworm Ascaridia galli. Embryonate eggs of A. galli were surface-sterilized by treatment with 5% strength sodium hypochlorite solution and, after removal of this solution, mechanically opened by means of rotating glass beads (5 mm). The hatched L2 larvae were enriched via larval enrichment processes, taken up in nutrient medium and incubated at 41° C. and 10% CO2.
48 hours after hatching, the larvae were incubated (41° C., 10% CO2) in microtiter plates (96 well) for 5 days with medicated medium (200 μl) in the concentrations 200, 100, 50 . . . 0.1 μg/ml. During the 5-day incubation period, motility, morphology, and vitality were checked microscopically and documented on a daily basis. After medication, the larval culture was incubated for 48 hours with Neutral Red in a concentration of 0.16%; after removal of the Neutral Red by change of medium, the enrichment of the vital dye in the intestine of the larvae was assessed as an index for active food intake and thus as proof of the vitality. The medication of the larvae with cephaibol A in the concentrations 200, 100, 50, and 25 μg/ml led to 100% mortality; at a concentration of 12.5 μg/ml and 6.25 μg/ml, the mortality was 92% and 20% respectively.

[18] = test system: Staphylococcus aureus 285; test: minimal inhibitory concentration (MIC); assay type: cell-based
[19] = test system: Streptococcus pyogenes 308 A; test: minimal inhibitory concentration (MIC); assay type: cell-based
[20] = test system: Pasteurella haemolytica P 53; test: minimal inhibitory concentration (MIC); assay type: cell-based
[21] = test system: Pasteurella haemolytica 7; test: minimal inhibitory concentration (MIC); assay type: cell-based
[22] = test system: Bordetella bronchiseptica 9; test: minimal inhibitory concentration (MIC); assay type: cell-based
[23] = test system: Enterobacter cloacae 1321 E; test: minimal inhibitory concentration (MIC); assay type: cell-based
[24] = test system: cat flea=Ctenocephalides felis; test: flea larval test (action on ectoparasites); assay type: in vivo; conditions: depending on the dose (2000, 1000, 500, 250 ppm etc. in blood meal), in comparison with the solvent control
Procedure: The action against ectoparasites was checked in the flea larval test (cat flea=Ctenocephalides felis). 5 mg of cephaibol A were dissolved in 0.5 ml of acetone and mixed into 500 mg of blood meal (defibrinated sheep blood). After the solvent had evaporated, 2 g of quartz sand were mixed with medicated blood meal such that preparation concentrations of 2000, 1000, 500, 250 ppm etc. resulted. 15 flea eggs per medicated sample or solvent control were added to the mixture of medicated blood meal and quartz sand, which was then incubated at 37° C. and high atmospheric humidity. The larval development, pupation and development to the adult stage were checked at an interval of 3–5 days and the mortality rates were documented.

[25] = test system: Pseudomonas aeruginosa 1771 M; test: minimal inhibitory concentration (MIC); assay type: cell-based
[26] = test system: Bordetella bronchiseptica ATCC 4617; test: minimal inhibitory concentration (MIC); assay type: cell-based
[27] = stability (physicochemical properties); conditions: in neutral, mildly acidic and mildly alkaline medium
From the text: as §1

CCC(C)(NC(=O)C(CC(C)C)NC(=O)CNC(=O)C(C)(C)NC(=O)C(C)(C)NC(=O)C(C)(C)NC(=O)C(C)(C)NC(=O)C(Cc1ccccc1)NC(C)=O)C(=O)NC(C)(C)C(=O)N1CC(O)CC1C(=O)NC(CCC(N)=O)C(=O)NC(C)(CC)C(=O)N1CC(O)CC1C(=O)NC(C)(C)C(=O)N1CCCC1C(=O)NC(CO)Cc1ccccc1 (stereo not drawn) [Cephaibol A, AcPhe-Aib-Aib-Aib-Aib-Gly-Leu-Iva-Aib-Hyp-Gln-Iva-Hyp-Aib-Pro-Phe-ol] (Ac-F[Aib][Aib][Aib][Aib]GL[Iva][Aib][Hyp]Q[Iva][Hyp][Aib]P[Phe(ol)]; configuration not given here)
MIC (Escherichia coli TEM): >128 µg/mL
MIC [1]: >128 µg/mL
MIC [2]: >128 µg/mL
MIC [3]: >128 µg/mL
MIC [4]: >128 µg/mL
MIC [5]: 64 µg/mL (≈ 38.3 µM)
MIC (Escherichia coli DC 2): >128 µg/mL
MIC [6]: >128 µg/mL
MIC (Escherichia coli DC 0): >128 µg/mL
MIC [7]: >128 µg/mL
MIC [8]: >128 µg/mL
MIC [9]: >128 µg/mL
solubility in polar organic solvents ([10]; polar organic solvents): soluble
solubility in water ([10]; water): only slightly soluble
MIC (Mycoplasma gallisepticum): 64 µg/mL (≈ 38.3 µM)
MIC [11]: >128 µg/mL
MIC [12]: >128 µg/mL
MIC [13]: 16 µg/mL (≈ 9.58 µM)
MIC [14]: 64 µg/mL (≈ 38.3 µM)
MIC [15]: >128 µg/mL
MIC (Escherichia coli 1507 E): >128 µg/mL
MIC [16]: >128 µg/mL
MIC (Mycoplasma mycoides L): 64 µg/mL (≈ 38.3 µM)
mortality ([17]; 6.25 μg/ml): 20%
mortality ([17]; 12.5 μg/ml): 92%
mortality ([17]; 25 μg/ml): 100%
mortality ([17]; 50 μg/ml): 100%
mortality ([17]; 100 μg/ml): 100%
mortality ([17]; 200 μg/ml): 100%
MIC [18]: 8 µg/mL (≈ 4.79 µM)
MIC [19]: 32 µg/mL (≈ 19.2 µM)
MIC [20]: >128 µg/mL
MIC [21]: >128 µg/mL
MIC [22]: >128 µg/mL
MIC [23]: >128 µg/mL
larvicidal action [24]: > 90%
MIC [25]: >128 µg/mL
MIC [26]: >128 µg/mL
stability [27]: stable
MIC (Mycoplasma mycoides LC): 128 µg/mL (≈ 76.6 µM)
